{
  "source": "patent US11351236B2",
  "about": "“BCMA chimeric antigen receptors” (2seventy bio, Inc., priority 2014, dated 2022)",
  "test_system": "human multiple myeloma (RPMI-8226) tumors",
  "experiment": "Sub-cutaneous human multiple myeloma (RPMI-8226) tumor model in NSG mice",
  "format": "in vivo, mouse",
  "conditions": "~100 mm^3 RPMI-8226 tumors, 10^7 CAR T cells or Bortezomib, two independent experiments",
  "method": "Hyperactivation and increased apoptosis could negatively impact CAR T cell persistence in patients and ultimately clinical efficacy. The anti-tumor function of anti-BCMA02 CAR T cells and anti-BCMA10 CAR T cells was examined in a mouse tumor model. NOD scid gamma (NSG) mice with ˜100 mm^3 experimental sub-cutaneous human multiple myeloma (RPMI-8226) tumors were treated with 10^7 anti-BCMA02 CAR T cells, 10^7 anti-BCMA10 CAR T cells, or Bortezomib (velcade). RPMI-8226 growth was monitored with calipers.",
  "data": [
    {"smiles": "CC(C)C[C@H](NC(=O)[C@H](Cc1ccccc1)NC(=O)c1cnccn1)B(O)O", "note": "[Bortezomib]", "values": [
      {"measurement": "tumor growth (calipers)", "value": "controlled tumor growth"}
    ]}
  ]
}
